Conditions: Liquid; for speed of sound: Sing-around technique in a fixed-path interferometer; for vapor or sublimation pressure: Closed cell (Static) method

CC(F)F [1,1-difluoroethane]
Conditions | speed of sound [m/s]
243.15 K, 138 kPa | 920.2
243.15 K, 442 kPa | 922.3
243.15 K, 595 kPa | 923.2
243.15 K, 1302 kPa | 927.8
243.15 K, 1815 kPa | 931
243.15 K, 2160 kPa | 933.1
243.15 K, 2762 kPa | 936.9
243.15 K, 3217 kPa | 939.9
243.15 K, 3854 kPa | 943.7
243.15 K, 4428 kPa | 947.1
243.15 K, 5359 kPa | 952.7
243.15 K, 6355 kPa | 958.6
243.15 K, 7657 kPa | 966.2
243.15 K, 8846 kPa | 973.1
243.15 K, 10231 kPa | 981
243.15 K, 11681 kPa | 989
243.15 K, 13279 kPa | 997.6
243.15 K, 14943 kPa | 1005.5
243.15 K, 16723 kPa | 1015.9
243.15 K, 17442 kPa | 1019.5
243.15 K, 18731 kPa | 1026.3
243.15 K, 20194 kPa | 1033.7
243.15 K, 22819 kPa | 1046.4
243.15 K, 25117 kPa | 1058.6
243.15 K, 27154 kPa | 1068.9
243.15 K, 30242 kPa | 1084.3
263.15 K, 407 kPa | 822.3
263.15 K, 581 kPa | 823.3
263.15 K, 759 kPa | 824.6
263.15 K, 928 kPa | 825.5
263.15 K, 1550 kPa | 831.3
263.15 K, 2228 kPa | 835.9
263.15 K, 2461 kPa | 837.6
263.15 K, 3130 kPa | 842.9
263.15 K, 3429 kPa | 844.7
263.15 K, 3914 kPa | 848.6
263.15 K, 5038 kPa | 856.2
263.15 K, 5789 kPa | 861.4
263.15 K, 6568 kPa | 866.7
263.15 K, 7201 kPa | 871
263.15 K, 7967 kPa | 876.3
263.15 K, 8899 kPa | 881.9
263.15 K, 9893 kPa | 888.5
263.15 K, 11531 kPa | 898.7
263.15 K, 13616 kPa | 912
263.15 K, 15466 kPa | 922.7
263.15 K, 17421 kPa | 934.4
263.15 K, 18552 kPa | 941
263.15 K, 19791 kPa | 947.4
263.15 K, 21881 kPa | 959.5
263.15 K, 25895 kPa | 980.9
263.15 K, 27572 kPa | 989.5
263.15 K, 29409 kPa | 998.8
283.15 K, 547 kPa | 722.7
283.15 K, 750 kPa | 724.6
283.15 K, 1038 kPa | 727.4
283.15 K, 1402 kPa | 731.2
283.15 K, 1697 kPa | 733.8
283.15 K, 2322 kPa | 739.5
283.15 K, 2793 kPa | 743.7
283.15 K, 3256 kPa | 747.8
283.15 K, 3975 kPa | 754
283.15 K, 4329 kPa | 756.9
283.15 K, 5020 kPa | 762.5
283.15 K, 6373 kPa | 773.5
283.15 K, 7420 kPa | 781.9
283.15 K, 8061 kPa | 787
283.15 K, 9151 kPa | 795.4
283.15 K, 10246 kPa | 803.6
283.15 K, 11356 kPa | 811.6
283.15 K, 13100 kPa | 824
283.15 K, 14824 kPa | 835.9
283.15 K, 16147 kPa | 844.8
283.15 K, 18020 kPa | 857
283.15 K, 19869 kPa | 868.3
283.15 K, 22681 kPa | 885.6
283.15 K, 24751 kPa | 897.6
283.15 K, 27174 kPa | 911.6
283.15 K, 29569 kPa | 925.1
298.15 K, 660 kPa | 648
298.15 K, 1153 kPa | 653.4
298.15 K, 1656 kPa | 658.8
298.15 K, 2142 kPa | 663.6
298.15 K, 3104 kPa | 674.1
298.15 K, 3609 kPa | 679.2
298.15 K, 4115 kPa | 684.3
298.15 K, 5023 kPa | 692.9
298.15 K, 5998 kPa | 702.2
298.15 K, 6939 kPa | 710.9
298.15 K, 8037 kPa | 720.6
298.15 K, 9271 kPa | 731.2
298.15 K, 10321 kPa | 740.1
298.15 K, 11735 kPa | 751.5
298.15 K, 13300 kPa | 763.9
298.15 K, 14789 kPa | 775.3
298.15 K, 16388 kPa | 787.1
298.15 K, 18041 kPa | 799
298.15 K, 19521 kPa | 809.3
298.15 K, 20530 kPa | 816.2
298.15 K, 22781 kPa | 831.1
298.15 K, 24289 kPa | 840.6
298.15 K, 26870 kPa | 856.4
298.15 K, 30717 kPa | 878.8
313.15 K, 1222 kPa | 575.1
313.15 K, 1721 kPa | 581.7
313.15 K, 2288 kPa | 589.2
313.15 K, 2776 kPa | 595.3
313.15 K, 3587 kPa | 605.3
313.15 K, 4184 kPa | 612.4
313.15 K, 4942 kPa | 621
313.15 K, 6282 kPa | 635.8
313.15 K, 7106 kPa | 644.5
313.15 K, 8134 kPa | 655.1
313.15 K, 9180 kPa | 665.6
313.15 K, 9927 kPa | 672.7
313.15 K, 11390 kPa | 686.3
313.15 K, 12765 kPa | 698.6
313.15 K, 15195 kPa | 719.2
313.15 K, 16072 kPa | 726.4
313.15 K, 17264 kPa | 736
313.15 K, 19072 kPa | 749.8
313.15 K, 21055 kPa | 764.7
313.15 K, 22659 kPa | 776.2
313.15 K, 25122 kPa | 793.3
313.15 K, 27530 kPa | 808.2
313.15 K, 29895 kPa | 822.3
333.15 K, 2129 kPa | 478.7
333.15 K, 2606 kPa | 487.2
333.15 K, 3860 kPa | 507.8
333.15 K, 4725 kPa | 520.6
333.15 K, 5932 kPa | 538
333.15 K, 7142 kPa | 552.1
333.15 K, 8008 kPa | 565.1
333.15 K, 9016 kPa | 577.2
333.15 K, 10079 kPa | 589.7
333.15 K, 11228 kPa | 602.3
333.15 K, 13279 kPa | 623.8
333.15 K, 15330 kPa | 643.8
333.15 K, 17092 kPa | 660.1
333.15 K, 18393 kPa | 671.6
333.15 K, 19875 kPa | 684.3
333.15 K, 22222 kPa | 702.8
333.15 K, 24752 kPa | 723.7
333.15 K, 24836 kPa | 723.7
333.15 K, 26902 kPa | 738.8
333.15 K, 29698 kPa | 758.6

Conditions | vapor or sublimation pressure [kPa]
243.15 K | 73
263.15 K | 179
283.15 K | 372
298.15 K | 595
313.15 K | 907
333.15 K | 1499

Reference: the NIST ThermoML archive (doi:10.1021/je049925a)
